Reference: patent publication US12559529B2, “NPY2 receptor agonists” (Boehringer Ingelheim International GmbH, priority 2019, dated 2026)
*1 amine or outer side, *2 acyl side, *3 side chain or, on linkers, in order; H or OH if unused. Where a SMILES comes first, the peptide text is derived from it. Side-chain parts run from the residue outwards. The star is where a group is joined. C18 diacid = O=C(O)CCCCCCCCCCCCCCCCC(=O)*; γGlu = O=C(O)[C@H](CCC(=O)[*:2])N[*:1]; Isovaleryl = CC(C)CC(=O)*; AEEA = NCCOCCOCC(=O)O

What follows are compounds tested against T1, Human Neuropeptide Y2 Receptor (Homo sapiens, UniProt P49146) (assay: Radioligand binding competition assay (RLB)). Conditions: Table 3; human 125I-PYY (1-36) 0.02 nM, Y2 receptor membranes; read-out: Ki.
T1 construct: purchased CHEMICON HTS066M
T1 sequence (P49146 1-381): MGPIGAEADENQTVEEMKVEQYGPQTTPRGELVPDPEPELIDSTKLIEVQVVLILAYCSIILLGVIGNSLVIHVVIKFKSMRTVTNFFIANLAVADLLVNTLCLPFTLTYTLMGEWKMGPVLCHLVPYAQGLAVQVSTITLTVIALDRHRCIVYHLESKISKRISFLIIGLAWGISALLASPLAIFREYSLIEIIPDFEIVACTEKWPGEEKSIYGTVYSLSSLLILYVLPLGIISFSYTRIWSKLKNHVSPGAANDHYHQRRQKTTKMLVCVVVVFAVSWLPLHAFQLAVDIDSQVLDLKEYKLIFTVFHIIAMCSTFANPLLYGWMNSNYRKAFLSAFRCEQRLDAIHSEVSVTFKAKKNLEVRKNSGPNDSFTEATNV
Method in brief: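 Peptide dilutions made in pH 7.4 HEPES assay buffer with 0.2% ovalbumin; human Y2 receptor membranes added at 0.5 μg protein/well; plates shaken 2 h at room temperature; reaction stopped by vacuum filtration onto PEI-treated GF/C filters with ice-cold high-salt washes; radioactivity counted by scintillation.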

SMILES | Ki [nM]
CC(C)CC(=O)N[C@@H](C)C(=O)N1CCC[C@H]1C(=O)N[C@@H](CCC(=O)O)C(=O)N[C@@H](CCCCNC(=O)COCCOCCNC(=O)COCCOCCNC(=O)CC[C@H](NC(=O)CCCCCCCCCCCCCCCCC(=O)O)C(=O)O)C(=O)N1CCC[C@H]1C(=O)N[C@@H](CCC(=O)O)C(=O)N[C@@H](CCC(=O)O)C(=O)N[C@@H](CC(=O)O)C(=O)N[C@H](C(=O)N[C@@H](CO)C(=O)N1CCC[C@H]1C(=O)N[C@@H](CCC(=O)O)C(=O)N[C@@H](CCC(=O)O)C(=O)N[C@@H](CC(C)C)C(=O)N[C@@H](CCC(N)=O)C(=O)N[C@@H](CCCNC(=N)N)C(=O)N[C@@H](Cc1ccc(O)cc1)C(=O)N[C@@H](Cc1ccc(O)cc1)C(=O)N[C@H](C(=O)N[C@@H](CCC(=O)O)C(=O)N[C@@H](CC(C)C)C(=O)N[C@@H](CCCNC(=N)N)C(=O)N[C@@H](Cc1c[nH]cn1)C(=O)N[C@@H](Cc1ccc(O)cc1)C(=O)N[C@@H](Cc1ccc(O)cc1)C(=O)N[C@@H](CC(N)=O)C(=O)N[C@@H](Cc1c[nH]c2ccccc12)C(=O)N[C@@H](CC(C)C)C(=O)N[C@H](C(=O)N[C@@H](CCCNC(=N)N)C(=O)N[C@@H](CCC(N)=O)C(=O)N[C@@H](CCCNC(=N)N)C(=O)N[C@@H](Cc1ccc(O)cc1)C(N)=O)[C@@H](C)O)C(C)C)[C@@H](C)O [Compound 28, N{alpha-4}-(3-methylbutanoyl)-N{epsilon-7}-[2-(2-{2-[2-(2-{2-[(4S)-4-carboxy-4-(17-carboxyheptadecanamido)butanamido]ethoxy}ethoxy)acetamido]ethoxy}ethoxy)acetamido]-[4A,7K,9E,12T,18Q,22V,23E,28Y,30W,31L]hPYY (4-36)] | 6.03
CC(C)CC(=O)N[C@@H](C)C(=O)N1CCC[C@H]1C(=O)N[C@@H](CCC(=O)O)C(=O)N[C@@H](CCCCNC(=O)COCCOCCNC(=O)COCCOCCNC(=O)CC[C@H](NC(=O)CCCCCCCCCCCCCCCCC(=O)O)C(=O)O)C(=O)N1CCC[C@H]1C(=O)N[C@@H](CCC(=O)O)C(=O)N[C@@H](CCC(=O)O)C(=O)N[C@@H](CC(=O)O)C(=O)N[C@@H](C)C(=O)N[C@@H](CO)C(=O)N1CCC[C@H]1C(=O)N[C@@H](CCC(=O)O)C(=O)N[C@@H](CCC(=O)O)C(=O)N[C@@H](CC(C)C)C(=O)N[C@@H](CCC(N)=O)C(=O)N[C@@H](CCCNC(=N)N)C(=O)N[C@@H](Cc1ccc(O)cc1)C(=O)N[C@@H](Cc1ccc(O)cc1)C(=O)N[C@H](C(=O)N[C@@H](CO)C(=O)N[C@H](C(=O)N[C@@H](CCCNC(=N)N)C(=O)N[C@@H](Cc1c[nH]cn1)C(=O)N[C@@H](Cc1ccc(O)cc1)C(=O)N[C@@H](Cc1ccc(O)cc1)C(=O)N[C@@H](CC(N)=O)C(=O)N[C@@H](Cc1c[nH]c2ccccc12)C(=O)N[C@@H](CC(C)C)C(=O)N[C@H](C(=O)N[C@@H](CCCNC(=N)N)C(=O)N[C@@H](CCC(N)=O)C(=O)N[C@@H](CCCNC(=N)N)C(=O)N[C@@H](Cc1ccc(O)cc1)C(N)=O)[C@@H](C)O)[C@@H](C)O)C(C)C [Compound 34, N{alpha-4}-(3-methylbutanoyl)-N{epsilon-7}-[2-(2-{2-[2-(2-{2-[(4S)-4-carboxy-4-(17-carboxyheptadecanamido)butanamido]ethoxy}ethoxy)acetamido]ethoxy}ethoxy)acetamido]-[4A,7K,9E,18Q,22V,24T,28Y,30W,31L]hPYY (4-36)] | 6.4
CC(C)CC(=O)N[C@@H](C)C(=O)N1CCC[C@H]1C(=O)N[C@@H](CCC(=O)O)C(=O)N[C@@H](CCCCNC(=O)COCCOCCNC(=O)COCCOCCNC(=O)CC[C@H](NC(=O)CCCCCCCCCCCCCCCCC(=O)O)C(=O)O)C(=O)N1CCC[C@H]1C(=O)N[C@@H](CCC(=O)O)C(=O)N[C@@H](CCC(=O)O)C(=O)N[C@@H](CC(=O)O)C(=O)N[C@@H](C)C(=O)N[C@@H](C)C(=O)N1CCC[C@H]1C(=O)N[C@@H](CCC(=O)O)C(=O)N[C@@H](CCC(=O)O)C(=O)N[C@H](C(=O)N[C@@H](CCC(N)=O)C(=O)N[C@@H](CCCNC(=N)N)C(=O)N[C@@H](Cc1ccc(O)cc1)C(=O)N[C@@H](Cc1ccc(O)cc1)C(=O)N[C@H](C(=O)N[C@@H](CO)C(=O)N[C@@H](CC(C)C)C(=O)N[C@@H](CCCNC(=N)N)C(=O)N[C@@H](Cc1c[nH]cn1)C(=O)N[C@@H](Cc1ccc(O)cc1)C(=O)N[C@@H](Cc1ccc(O)cc1)C(=O)N[C@@H](CC(N)=O)C(=O)N[C@@H](Cc1c[nH]c2ccccc12)C(=O)N[C@@H](CC(C)C)C(=O)N[C@H](C(=O)N[C@@H](CCCNC(=N)N)C(=O)N[C@@H](CCC(N)=O)C(=O)N[C@@H](CCCNC(=N)N)C(=O)N[C@@H](Cc1ccc(O)cc1)C(N)=O)[C@@H](C)O)C(C)C)[C@@H](C)O [Compound 35, N{alpha-4}-(3-methylbutanoyl)-N{epsilon-7}-[2-(2-{2-[2-(2-{2-[(4S)-4-carboxy-4-(17-carboxyheptadecanamido)butanamido]ethoxy}ethoxy)acetamido]ethoxy}ethoxy)acetamido]-[4A,7K,9E,13A,17T,18Q,22V,28Y,30W,31L]hPYY (4-36)] | 1.21

The remaining lines, values ahead:

Ki [nM] | SMILES
4.84 | CC(C)CC(=O)N[C@@H](C)C(=O)N1CCC[C@H]1C(=O)N[C@@H](CCC(=O)O)C(=O)N[C@@H](CCCCNC(=O)COCCOCCNC(=O)COCCOCCNC(=O)CC[C@H](NC(=O)CCCCCCCCCCCCCCCCC(=O)O)C(=O)O)C(=O)N1CCC[C@H]1C(=O)N[C@@H](CCC(=O)O)C(=O)N[C@@H](CCC(=O)O)C(=O)N[C@@H](CC(=O)O)C(=O)N[C@H](C(=O)N[C@@H](CO)C(=O)N1CCC[C@H]1C(=O)N[C@@H](CCC(=O)O)C(=O)N[C@@H](CCC(=O)O)C(=O)N[C@@H](CC(C)C)C(=O)N[C@@H](CCC(N)=O)C(=O)N[C@@H](CCCNC(=N)N)C(=O)N[C@@H](Cc1ccc(O)cc1)C(=O)N[C@@H](CCC(=O)O)C(=O)N[C@H](C(=O)N[C@@H](CO)C(=O)N[C@@H](CC(C)C)C(=O)N[C@@H](CCCNC(=N)N)C(=O)N[C@@H](Cc1c[nH]cn1)C(=O)N[C@@H](Cc1ccc(O)cc1)C(=O)N[C@@H](Cc1ccc(O)cc1)C(=O)N[C@@H](CC(N)=O)C(=O)N[C@@H](Cc1c[nH]c2ccccc12)C(=O)N[C@@H](CC(C)C)C(=O)N[C@H](C(=O)N[C@@H](CCCNC(=N)N)C(=O)N[C@@H](CCC(N)=O)C(=O)N[C@@H](CCCNC(=N)N)C(=O)N[C@@H](Cc1ccc(O)cc1)C(N)=O)[C@@H](C)O)C(C)C)[C@@H](C)O [Compound 32, N{alpha-4}-(3-methylbutanoyl)-N{epsilon-7}-[2-(2-{2-[2-(2-{2-[(4S)-4-carboxy-4-(17-carboxyheptadecanamido)butanamido]ethoxy}ethoxy)acetamido]ethoxy}ethoxy)acetamido]-[4A,7K,9E,12T,18Q,21E,22V,28Y,30W,31L]hPYY (4-36)] (Isovaleryl-APEK([AEEA-AEEA-γGlu-C18 diacid])PEEDTSPEELQRYEVSLRHYYNWLTRQRY-NH2)
10.6 | CC(C)CC(=O)N[C@@H](C)C(=O)N1CCC[C@H]1C(=O)N[C@@H](CCC(=O)O)C(=O)N[C@@H](CCCCNC(=O)COCCOCCNC(=O)COCCOCCNC(=O)CC[C@H](NC(=O)CCCCCCCCCCCCCCCCC(=O)O)C(=O)O)C(=O)N[C@@H](C)C(=O)N[C@@H](CCC(=O)O)C(=O)N[C@@H](CCC(=O)O)C(=O)N[C@@H](CC(=O)O)C(=O)N[C@@H](C)C(=O)N[C@@H](CCC(=O)O)C(=O)N1CCC[C@H]1C(=O)N[C@@H](CCC(=O)O)C(=O)N[C@@H](CCC(=O)O)C(=O)N[C@@H](CC(C)C)C(=O)N[C@@H](CCC(N)=O)C(=O)N[C@@H](CCCNC(=N)N)C(=O)N[C@@H](Cc1ccc(O)cc1)C(=O)N[C@@H](Cc1ccc(O)cc1)C(=O)N[C@H](C(=O)N[C@@H](CO)C(=O)N[C@@H](CC(C)C)C(=O)N[C@@H](CCCNC(=N)N)C(=O)N[C@@H](Cc1c[nH]cn1)C(=O)N[C@@H](Cc1ccc(O)cc1)C(=O)N[C@@H](Cc1ccc(O)cc1)C(=O)N[C@@H](CC(N)=O)C(=O)N[C@@H](Cc1c[nH]c2ccccc12)C(=O)N[C@@H](CC(C)C)C(=O)N[C@H](C(=O)N[C@@H](CCCNC(=N)N)C(=O)N[C@@H](CCC(N)=O)C(=O)N[C@@H](CCCNC(=N)N)C(=O)N[C@@H](Cc1ccc(O)cc1)C(N)=O)[C@@H](C)O)C(C)C [Compound 36, N{alpha-4}-(3-methylbutanoyl)-N{epsilon-7}-[2-(2-{2-[2-(2-{2-[(4S)-4-carboxy-4-(17-carboxyheptadecanamido)butanamido]ethoxy}ethoxy)acetamido]ethoxy}ethoxy)acetamido]-[4A,7K,8A,9E,13E,18Q,22V,28Y,30W,31L]hPYY (4-36)]
